Molecules are shown by their SMILES. Where only a bound is given, the exact number is not on record here.

The first assay has as its system TNF production by monocytes activated with bacterial lipopolysaccharide (LPS). Description: Lipopolysaccharide-activated monocyte TNF production assay (LPS induced TNF release). The class given is cell-based, human. The settings on record: Homo sapiens, Monocyte, TNF in supernatant by ELISA. Here is the method: Lipopolysaccharide-activated Monocyte TNF Production Assay
Test compounds were evaluated in vitro for the ability to inhibit the production of TNF by monocytes activated with bacterial lipopolysaccharide (LPS). Fresh residual source leukocytes (a byproduct of plateletpheresis) were obtained from a local blood bank, and peripheral blood mononuclear cells (PBMCs) were isolated by density gradient centrifugation on Ficol-Paque Plus (Pharmacia). PBMCs were suspended at 2×10^6/ ml in DMEM supplemented to contain 2% FCS, 10 mM, 0.3 mg/ml glutamate, 100 U/ml penicillin G and […] streptomycin sulfate (complete media). Cells were plated into Falcon flat bottom, 96 well culture plates (200 μl/well) and cultured overnight at 37° C. and 6% CO2. Non-adherent cells were removed by washing with 200 μl/well of fresh medium. Wells containing adherent cells (˜70% monocytes) were replenished with 100 μl of fresh medium.
Preparation of Test Compound Stock Solutions
Test compounds were dissolved in […]. Compound stock solutions were prepared to an initial concentration of […]. Stocks were diluted initially to 20-200 μM in complete media. Nine two-fold serial dilutions of each compound were then prepared in complete medium.
Treatment of Cells with Test Compounds and Activation of TNF Production with Lipopolysaccharide
One hundred microliters of each test compound dilution were added to microtiter wells containing adherent monocytes and 100 μl complete medium. Monocytes were cultured with test compounds for 60 min at which time 25 μl of complete medium containing 30 ng/ml lipopolysaccharide from E. coli K532 were added to each well. Cells were cultured an additional 4 hrs. Culture supernatants were then removed and TNF presence in the supernatants was quantified using an ELISA.
Flat bottom, 96 well Corning High Binding ELISA plates were coated overnight (4° C.) with 150 μL/well of 3 μg/ml murine anti-human TNF-α MAb (R&D Systems #MAB210). Wells were then blocked for 1 hr at room temperature with 200 μL/well of CaCl2-free ELISA buffer supplemented to contain 20 mg/ml BSA (standard ELISA buffer: […], 150 mM NaCl, 2 mM CaCl2, 0.15 mM thimerosal, pH 7.4). Plates were washed and replenished with 100 μl of test supernatants (diluted 1:3) or standards. Standards consisted of eleven 1.5-fold serial dilutions from a stock of 1 ng/ml recombinant human TNF (R&D Systems). Plates were incubated at room temperature for 1 hr on orbital shaker (300 rpm), washed and replenished with 100 μl/well of 0.5 μg/ml goat anti-human TNF-α (R&D systems #AB-210-NA) biotinylated at a 4:1 ratio. Plates were incubated for 40 min, washed and replenished with 100 μl/well of alkaline phosphatase-conjugated streptavidin (Jackson ImmunoResearch #016-050-084) at 0.02 μg/ml. Plates were incubated 30 min, washed and replenished with 200 μl/well of 1 mg/ml of p-nitrophenyl phosphate. After 30 min, plates were read at […] on a Vmax plate reader.
Standard curve data were fit to a second order polynomial and unknown TNF-α concentrations determined from their OD by solving this equation for concentration. TNF concentrations were then plotted vs. test compound concentration using a second order polynomial. This equation was then used to calculate the concentration of test compounds causing a 50% reduction in TNF production.
On the technique in general: An ELISA detects its analyte on a solid surface through an enzyme-linked reagent.
A word on the IC50: it is the point on the concentration scale where inhibition reaches its midpoint. Higher therefore signals a need for much substance. For `O=c1[nH]c(-c2ccccc2)cc(-c2ccncc2)c1-c1ccccc1` [3,6-Diphenyl-4-(4-pyridyl)-2(1H)-pyridone], the IC50 is not above 20 µM. Turning to `O=c1[nH]c(-c2cccs2)cc(-c2ccncc2)c1-c1ccccc1` [3-Phenyl-4-(4-pyridyl)-6-(2-thienyl)-2(1H)-pyridone], the IC50 is not above 20 µM. Turning to `Cc1ccc(-c2cc(-c3ccncc3)c(-c3ccccc3)c(=O)[nH]2)c(C)c1` [6-(2,4-Dimethylphenyl)-3-phenyl-4-(4-pyridyl)-2(1H)-pyridone], the IC50 is not above 20 µM. Consider `O=c1[nH]c(-c2ccco2)cc(-c2ccncc2)c1-c1ccccc1` [6-(2-Furyl)-3-phenyl-4-(4-pyridyl)-2(1H)-pyridone], for which the half-maximal inhibitory concentration (IC50) is not above 20 µM. Turning to `Cc1ccc(-c2cc(-c3ccncc3)c(-c3ccccc3)c(=O)[nH]2)cc1` [6-(4-Methylphenyl)-3-phenyl-4-(4-pyridyl)-2(1H)-pyridone], the IC50 is not above 20 µM.

The assay is the same for the next values; noted with them: TNF in supernatant by ELISA.
`Cc1ccccc1C(N)CCNc1nc(-c2ccncc2)c(-c2cccc(C(F)(F)F)c2)c(=O)n1C` (stereo not shown) [2-((3-Amino-3-(2-methylphenyl)propyl)-amino)-3-methyl-6-(4-pyridyl)5-(3-trifluoromethylphenyl)-4-(3H)-pyrimidinone] gave an IC50 not above 5 µM. Take `Cn1c(NCCC(N)c2ccccc2)nc(-c2ccncc2)c(-c2cccc(C(F)(F)F)c2)c1=O` (stereo not shown) [2-((3-Amino-3-phenylpropyl)-amino)-3-methyl-6-(4-pyridyl)5-(3-trifluoromethylphenyl)-4-(3H)-pyrimidinone]: the IC50 is not above 5 µM.

Values taken from patent US6420385B1, “Substituted pyrimidinone and pyridone compounds and methods of use” (Amgen Inc., priority 1996, dated 2002).
